# Laboratory results as given in patent publication US20060281791A1, “Methods of increasing proliferation of adult mammalian cardiomyocytes through p38 map kinase inhibition” (CHILDREN'S MEDICAL CENTER CORPORATION, priority 2005, published 2006).
# Tested on: neonatal (P2) cardiomyocytes
# Experiment: Induction of DNA synthesis (BrdU incorporation) in neonatal cardiomyocytes
# Type: cell-based, rat
# Conditions: BrdU labeling period 24 to 72 hours; harvested after 72 hours; optimal concentration of stimulus
# Experimental: Animal experiments were performed in accordance with guidelines of Children's Hospital, Boston and UCLA. Ventricular cardiomyocytes from fetal (E19), 2-day-old (P2) and adult (250-350 g) Wistar rats (Charles River) were isolated as described with minor modifications (Engel et al. 1999; Engel et al. 2003). After digestion of fetal or neonatal hearts (0.14 mg/ml collagenase II (Invitrogen), 0.55 mg/ml pancreatin (Sigma)) cells were cultured in DMEM/F12 (GIBCO) containing 3 mM Na-pyruvate, 0.2% BSA, 0.1 mM ascorbic acid (Sigma), 0.5% Insulin-Transferrin-Selenium (100×), penicillin (100 U/ml), streptomycin (100 μg/ml), and 2 mM L-glutamine (GIBCO). Adult cardiomyocytes were cultured for 1 day in standard medium (DMEM, 25 mM Hepes, 5 mM taurine, 5 mM creatine, 2 mM L-carnitine (Sigma), 20 U/ml insulin (GIBCO), 0.2% BSA, penicillin (100 U/ml), and streptomycin (100 μg/ml)). Cells were stimulated in culture medium without BSA containing 2 mM L-glutamine. Neonatal and adult cardiomyocytes were initially cultured for 48 h in the presence of 20 μM cytosine β-D-arabinofuranoside (araC, Sigma) and 5% horse serum before stimulation to prevent proliferation of non-myocytes. Adult cardiomyocytes were incubated another 3 days with araC during stimulation. Neonatal cardiomyocytes were stimulated every day with growth factors for BrdU and H3P analyses (FGF1 and NRG-1-1β at 50 ng/ml, IL-1β at 100 ng/ml, R&D Systems, all diluted in 0.1% BSA/PBS). SB203580 and LY294002 (Calbiochem) was added every day. Adult cardiomyocytes were stimulated with fresh medium and SB203580 every 3 days.
# Staining was performed as described (Supplemental Table S3) (Engel et al. 1999; Engel et al. 2003). Immune complexes were detected with ALEXA 350, ALEXA 488 or ALEXA 594-conjugated secondary antibodies (1:200, Molecular Probes). DNA was visualised with DAPI (4′,6′-diamidino-2-phenylindole, 0.5 μg/ml, Sigma). For BrdU, cells were cultured in 30 μM BrdU, incubated after permeabilization for 90 min in 2N HCl/1% triton X-100 and washed 3 times in PBS.
# Eighteen to 40 hearts of 3 different litters were used for quantitative analyses of maximal areas. For immunofluorescence analyses 1,500 fetal or neonatal cardiomyocytes were counted. For adult cardiomyocyte analyses in vitro the following number of cells were counted: 500-2,000 for BrdU or Ki67, 9,000-25,000 for H3P, and 12,000-45,000 for aurora B. For in vivo MKK3bE and p38α knockout experiments 2 different litters were used. We counted 1,500-2,000 cells in each apex, left and right ventricle per heart. For adult experiments we analyzed 2 p38α^Δ/Δ and 2 p38^lox/lox hearts (24 sections each). Statistical significance was determined using Student's t test.
# Several growth factors have a limited capacity to induce DNA synthesis in neonatal cardiomyocytes, including FGF1 (Pasumarthi and Field 2002). We screened 45 extracellular factors at two different concentrations for their ability to induce BrdU incorporation in neonatal (P2) cardiomyocytes. […] We confirmed previous studies showing that FGF1, IL-1β, and NRG-1-β1 are potent growth factors for neonatal cardiomyocytes (Supplemental Table S2) (Pasumarthi and Field 2002 Circ Res 90: 1044-54).
# Inhibition of p38 activity by SB203580 increased BrdU incorporation 2.8-fold in neonatal cardiomyocytes stimulated with FGF1 (p<0.01). Similar results were obtained after stimulation with IL-1β and NRG-1-β1. Thus, inhibition of p38 activity augments growth factor-mediated DNA synthesis in neonatal cardiomyocytes.
substance,measurement,value
FGF1: growth factor FGF1 (R&D Systems),% of BrdU positive neonatal cardiomyoctes,61.8 ± 2.1%
